Measured values as given in ChEMBL document CHEMBL5104211, “Design and synthesis of bile acid derivatives and their activity against colon cancer” (RSC Med Chem, 2022).

Columns and labels:
RKO = assay: Anticancer activity against human RKO cells assessed as inhibition of cell proliferation by MTT assay; type: functional, cell-based
[1] = Cytotoxicity against human WI-38 cells assessed as inhibition of cell proliferation by MTT assay; type: toxicity, cell-based
HT-29 = assay: Anticancer activity against human HT-29 cells assessed as inhibition of cell proliferation by MTT assay; type: functional, cell-based
SW480 = assay: Anticancer activity against human SW480 cells assessed as inhibition of cell proliferation by MTT assay; type: functional, cell-based
MGC-803 = assay: Anticancer activity against human MGC-803 cells assessed as inhibition of cell proliferation by MTT assay; type: functional, cell-based
LoVo = assay: Anticancer activity against human LoVo cells assessed as inhibition of cell proliferation by MTT assay; type: functional, cell-based
Huh-7 = assay: Anticancer activity against human Huh-7 cells assessed as inhibition of cell proliferation by MTT assay; type: functional, cell-based
A549 = assay: Anticancer activity against human A549 cells assessed as inhibition of cell proliferation by MTT assay; type: functional, cell-based
HCT-116 [2] = assay: Anticancer activity against human HCT-116 cells assessed as inhibition of cell proliferation by MTT assay; type: functional, cell-based
SK-HEP1 = assay: Anticancer activity against human SK-HEP1 cells assessed as inhibition of cell proliferation by MTT assay; type: functional, cell-based
HCT-116 [3] = assay: Induction of apoptosis in human HCT-116 cells assessed as late apoptotic cells at 30 micromol/L incubated for 48 hrs by annexin V-FITC and propidium iodide staining based flow cytometry analysis (reference value: 7.13%); type: functional; details: dose 30 µmol/L, at 30 µM
HCT-116 [4] = assay: Induction of apoptosis in human HCT-116 cells assessed as necrotic cells at 30 micromol/L incubated for 48 hrs by annexin V-FITC and propidium iodide staining based flow cytometry analysis (reference value: 0.88%); type: functional; details: dose 30 µmol/L, at 30 µM
HCT-116 [5] = assay: Induction of apoptosis in human HCT-116 cells assessed as viable cells at 30 micromol/L incubated for 48 hrs by annexin V-FITC and propidium iodide staining based flow cytometry analysis (reference value: 89.29%); type: functional; details: HCT-116, 48 h, dose 30 µmol/L, read-out: Activity
HCT-116 [6] = assay: Induction of apoptosis in human HCT-116 cells assessed as early apoptotic cells at 30 micromol/L incubated for 48 hrs by annexin V-FITC and propidium iodide staining based flow cytometry analysis (reference value: 2.69%); type: functional; details: dose 30 µmol/L, at 30 µM

| SMILES | IC50 (RKO) | IC50 [1] | IC50 (HT-29) | IC50 (SW480) | IC50 (MGC-803) | IC50 (LoVo) | IC50 (Huh-7) | IC50 (A549) | IC50 (HCT-116 [2]) | IC50 (SK-HEP1) | Activity (HCT-116 [3]) | Activity (HCT-116 [4]) | viability at 30 µM (HCT-116 [5]) | Activity (HCT-116 [6]) |
| --- | --- | --- | --- | --- | --- | --- | --- | --- | --- | --- | --- | --- | --- | --- |
| C[C@H](CCC(=O)NCc1ccccc1O)[C@H]1CC[C@H]2[C@@H]3[C@H](O)C[C@@H]4C[C@H](O)CC[C@]4(C)[C@H]3C[C@H](O)[C@]12C | 48.5 µM | > 200 µM | 32.7 µM | 35.9 µM | 42.3 µM | 51.1 µM | 63.7 µM | 40.5 µM | 36.3 µM | 25.4 µM | – | – | – | – |
| C[C@H](CCC(=O)O)[C@H]1CC[C@H]2[C@@H]3[C@H](O)C[C@@H]4C[C@H](O)CC[C@]4(C)[C@H]3C[C@H](O)[C@]12C [CHOLIC ACID] | > 200 µM | – | > 200 µM | > 200 µM | > 200 µM | > 200 µM | > 200 µM | > 200 µM | > 200 µM | > 200 µM | – | – | – | – |
| C[C@H](CCC(=O)O)[C@H]1CC[C@H]2[C@@H]3CC[C@@H]4C[C@H](O)CC[C@]4(C)[C@H]3CC[C@]12C [LITHOCHOLIC ACID] | > 200 µM | – | > 200 µM | > 200 µM | > 200 µM | > 200 µM | > 200 µM | > 200 µM | > 200 µM | > 200 µM | – | – | – | – |
| O=c1[nH]cc(F)c(=O)[nH]1 [FLUOROURACIL] | 12.7 µM | – | 17.5 µM | 21.9 µM | 6.06 µM | – | 1.06 µM | 109 µM | 32.3 µM | 12.5 µM | 69.38% | 0.59% | 27.9% | 2.13% |
| CC(=O)Oc1ccc(OC(=O)CC[C@@H](C)[C@H]2CC[C@H]3[C@@H]4[C@H](O)C[C@@H]5C[C@H](O)CC[C@]5(C)[C@H]4CC[C@]23C)cc1 | 142 µM | > 200 µM | 56.3 µM | 100 µM | 109 µM | 76.9 µM | 60.7 µM | > 200 µM | 149 µM | 85 µM | – | – | – | – |
| Cc1ccc(COC(=O)CC[C@@H](C)[C@H]2CC[C@H]3[C@@H]4[C@H](O)C[C@@H]5C[C@H](O)CC[C@]5(C)[C@H]4CC[C@]23C)cc1 | 42.1 µM | > 200 µM | 25.4 µM | 43.1 µM | 37.5 µM | 27.4 µM | 27.2 µM | 86.6 µM | 53.7 µM | 54.9 µM | – | – | – | – |
| C[C@H](CCC(=O)O)[C@H]1CC[C@H]2[C@@H]3[C@H](O)C[C@@H]4C[C@H](O)CC[C@]4(C)[C@H]3CC[C@]12C [CHENODIOL] | > 200 µM | – | > 200 µM | > 200 µM | > 200 µM | > 200 µM | > 200 µM | > 200 µM | > 200 µM | > 200 µM | – | – | – | – |
| COc1cc(COC(=O)CC[C@@H](C)[C@H]2CC[C@H]3[C@@H]4[C@H](O)C[C@@H]5C[C@H](O)CC[C@]5(C)[C@H]4CC[C@]23C)cc(OC)c1 | 45.4 µM | > 200 µM | 26 µM | 37.6 µM | 36.6 µM | 21.3 µM | 63.1 µM | 99.6 µM | 45 µM | 65.1 µM | – | – | – | – |
| C[C@H](CCC(=O)OCc1ccc([N+](=O)[O-])cc1)[C@H]1CC[C@H]2[C@@H]3[C@H](O)C[C@@H]4C[C@H](O)CC[C@]4(C)[C@H]3CC[C@]12C | 43.2 µM | > 200 µM | 29.6 µM | 44.1 µM | 50.6 µM | 30.4 µM | 44.6 µM | 87.2 µM | 40.4 µM | 111 µM | – | – | – | – |
| C[C@H](CCC(=O)O)[C@H]1CC[C@H]2[C@@H]3[C@@H](O)C[C@@H]4C[C@H](O)CC[C@]4(C)[C@H]3CC[C@]12C [URSODIOL] | > 200 µM | – | > 200 µM | > 200 µM | > 200 µM | > 200 µM | > 200 µM | > 200 µM | > 200 µM | > 200 µM | – | – | – | – |
| C[C@H](CCC(=O)OCc1cccc(O)c1)[C@H]1CC[C@H]2[C@@H]3[C@@H](O)C[C@@H]4C[C@@H](O)CC[C@]4(C)[C@H]3CC[C@]12C | 68.8 µM | > 200 µM | 58.8 µM | 99 µM | 59.4 µM | 44.9 µM | 152 µM | > 200 µM | 54.2 µM | 155 µM | – | – | – | – |
| CC(=O)Oc1ccc(OC(=O)CC[C@@H](C)[C@H]2CC[C@H]3[C@@H]4[C@@H](O)C[C@@H]5C[C@@H](O)CC[C@]5(C)[C@H]4CC[C@]23C)cc1 | 187 µM | > 200 µM | 123 µM | > 150 µM | 111 µM | 168 µM | 185 µM | 187 µM | 102 µM | 177 µM | – | – | – | – |
| CC(=O)Nc1ccc(OC(=O)CC[C@@H](C)[C@H]2CC[C@H]3[C@@H]4[C@H](O)C[C@@H]5C[C@H](O)CC[C@]5(C)[C@H]4C[C@H](O)[C@]23C)cc1 | 36.3 µM | > 200 µM | 53.3 µM | 38.7 µM | 36.7 µM | 58 µM | 70.4 µM | 59.4 µM | 54.3 µM | 41.1 µM | – | – | – | – |
| COC(=O)[C@H](CCSC)NC(=O)CC[C@@H](C)[C@H]1CC[C@H]2[C@@H]3[C@H](O)C[C@@H]4C[C@H](O)CC[C@]4(C)[C@H]3C[C@H](O)[C@]12C | 97.3 µM | > 200 µM | 127 µM | 64.7 µM | 96.9 µM | 51.6 µM | 190 µM | > 200 µM | 85.2 µM | 173 µM | – | – | – | – |
| C[C@H](CCC(=O)OCc1cccc(O)c1)[C@H]1CC[C@H]2[C@@H]3[C@H](O)C[C@@H]4C[C@H](O)CC[C@]4(C)[C@H]3C[C@H](O)[C@]12C | 47.6 µM | > 200 µM | 24.3 µM | 39.3 µM | 54.9 µM | 28.7 µM | 102 µM | 47.8 µM | 33 µM | 61.8 µM | – | – | – | – |
| C[C@H](CCC(=O)OCc1cccc(O)c1)[C@H]1CC[C@H]2[C@@H]3CC[C@@H]4C[C@H](O)CC[C@]4(C)[C@H]3CC[C@]12C | 150 µM | > 200 µM | 173 µM | 183 µM | > 200 µM | 158 µM | 185 µM | > 200 µM | 142 µM | 125 µM | – | – | – | – |
| C[C@H](CCC(=O)OCc1cccc(O)c1)[C@H]1CC[C@H]2[C@@H]3[C@H](O)C[C@@H]4C[C@H](O)CC[C@]4(C)[C@H]3CC[C@]12C | 128 µM | > 200 µM | 33.6 µM | 42.8 µM | 49 µM | 40.9 µM | 124 µM | 69.4 µM | 42.3 µM | 99 µM | – | – | – | – |
